The record followed here is patent US8563559B2 (Rigel Pharmaceuticals, Inc., priority 2006, dated 2013).

Each structure is given as a SMILES string.

One test has as its target T1, Axl (Homo sapiens, UniProt P30530).
T1 construct: endogenous in cells; host or cells: HeLa
T1 sequence (P30530 26-894): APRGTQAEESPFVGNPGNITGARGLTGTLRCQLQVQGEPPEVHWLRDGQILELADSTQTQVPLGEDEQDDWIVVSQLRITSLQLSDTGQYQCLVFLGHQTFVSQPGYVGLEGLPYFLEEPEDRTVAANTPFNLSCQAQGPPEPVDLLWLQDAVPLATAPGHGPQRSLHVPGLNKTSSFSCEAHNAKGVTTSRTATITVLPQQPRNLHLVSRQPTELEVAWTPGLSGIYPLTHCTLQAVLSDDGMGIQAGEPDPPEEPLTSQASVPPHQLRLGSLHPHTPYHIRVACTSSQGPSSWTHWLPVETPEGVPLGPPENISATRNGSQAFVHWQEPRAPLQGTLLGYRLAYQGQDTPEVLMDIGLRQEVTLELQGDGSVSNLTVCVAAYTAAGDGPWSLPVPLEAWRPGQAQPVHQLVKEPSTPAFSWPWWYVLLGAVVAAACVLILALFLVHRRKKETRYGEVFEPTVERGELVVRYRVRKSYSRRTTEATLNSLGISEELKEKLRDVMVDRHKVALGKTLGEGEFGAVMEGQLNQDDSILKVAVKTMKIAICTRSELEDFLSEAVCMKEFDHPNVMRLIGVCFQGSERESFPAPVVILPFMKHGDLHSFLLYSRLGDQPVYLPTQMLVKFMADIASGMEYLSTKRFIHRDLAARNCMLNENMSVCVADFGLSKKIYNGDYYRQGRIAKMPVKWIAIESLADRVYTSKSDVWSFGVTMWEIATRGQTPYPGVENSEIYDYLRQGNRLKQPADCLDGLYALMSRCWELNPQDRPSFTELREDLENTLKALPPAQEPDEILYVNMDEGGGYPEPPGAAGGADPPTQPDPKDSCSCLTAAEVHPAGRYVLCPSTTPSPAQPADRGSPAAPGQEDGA
The experiment in a line: Phospho-AKT in-cell Western assay (inhibition of Axl activity). It counts as cell-based. The settings on record: Table 1, formula (Ia); Hela cells, Axl antibody cross-linking stimulation, phospho-Akt chemiluminescence normalized to relative cell number. As to the method:
The compounds of the invention were tested in the following assay for their ability to inhibit Axl activity.
Phospho-AKT in-Cell Western Assay
• Cell culture plate: 96 well assay plate (Corning 3610), white, clear bottom, tissue-culture treated. • Cells: Hela cells. • Starvation medium: For Axl stimulation: 0.5% FCS (fetal calf serum) in DMEM, plus Axl/Fc (extracellular domain of AXL fused to immunoglobulin Fc region) (R&D, 154-AL) 500 ng/mL. • For EGF (epidermal growth factor) stimulation: 0.5% FCS in DMEM (Dulbecco's modified Eagles medium). • Poly-L-Lysine 0.01% solution (the working solution): 10 μg/ml, dilute In PBS (phosphate buffered saline). • Axl antibody cross-linking: • 1st: Mouse anti-Axl (R&D, MAB154). • 2nd: Biotin-SP-conjugated AffiniPure goat anti-mouse IgG (H+L) (Jackson ImmunoResearch #115-065-003). • Fixing buffer: 4% formaldehyde in PBS. • Wash buffer: 0.1% TritonX-100 in PBS. • Quenching buffer: 3% H2O2, 0.1% Azide in wash buffer, Azide and hydrogen peroxide 1(H2O2) are added fresh. • Blocking buffer: 5% BSA in TBST (tris buffered saline plus 0.1% Tween 20). • Primary antibody: Rabbit anti-human Phospho-Akt antibody (Cell Signaling 9271): 1×250 diluted in blocking buffer. • Secondary antibody: HRP (horse radish peroxidase)-conjugated Goat anti-Rabbit secondary, stock solution: Jackson ImmunoResearch (Goat anti-Rabbit HRP, #111-035-144) 1:1 diluted in glycerol, store at −20° C. The working solution: 1×2000 dilution of stock in blocking buffer. • Chemiluminescent working solution (Pierce, 37030): SuperSignal ELISA (enzyme linked immunosorbant assay) Pico Chemiluminescent substrate. • Crystal Violet solution: Stock: 2.5% Crystal violet in methanol, filtered and kept at ambient temperature. The working solution: dilute the stock 1:20 with PBS immediately before use. • 10% SDS: working solution: 5% SDS (sodium dodecylsulfate), diluted in PBS Methods: Day 1:
A 96 well TC (tissue culture treated) plate was coated with 10 μg/mL poly-L-Lysine at 37° C. for 30 min, washed twice with PBS, and air-dried for 5 minutes before cells were added. Hela cells were seeded at 10,000 cells/well and the cells were starved in 100 μL starvation medium containing Axl/Fc for 24 hrs.
The cells were pre-treated with test compounds by adding 100 μL of 2× test compound to the starvation medium on the cells. The cells were incubated at 37° C. for 1 hr before stimulation.
The cells were stimulated by Axl-antibody cross-linking as follows: A 5×1st/2nd Axl antibody mixture was made (37.5 μg/mL 1st/100 μg/mL 2nd) in starvation medium and nutated at 4° C. with thorough mixing for 1-2 hours for clustering. The resulting mix was warmed to 37° C. 50 μL of 5×Axl 1st/2nd of antibody cluster was added to the cells and the cells were incubated at 37° C. for 5 min.
After 5 minutes stimulation, the plate was flicked to remove medium and the plate was tapped onto paper towels. Formaldehyde (4.0% in PBS, 100 μL) was added to fix the cells and the cells were incubated at ambient temperature for 20 min without shaking.
The cells were washed with a plate washer buffer to remove the formaldehyde solution. The plate was flicked to removed excess wash buffer and tapped onto paper towels. Quenching buffer (100 μL) was added to each well and the cells were incubated at ambient temperature for 20 minutes without shaking.
The cells were washed with a plate washer buffer to remove the quenching buffer. Blocking buffer (100 μL) was added and the cells were incubated at ambient temperature for at least an hour with gentle shaking.
The cells were washed with a plate washer buffer and diluted primary antibody (50 μL) was added to each well (blocking buffer was added to the negative control wells instead). The plates were incubated overnight at 4° C. with gentle shaking.
The wash buffer was removed, diluted secondary antibody (100 μL) was added, and the cells were incubated at ambient temperature for 1 hour with gentle shaking. […]
What is called IC50 is the concentration at which inhibition is half-maximal. High values mean weaker potency in that assay, low ones greater potency in that assay. As to `CNC(=O)[C@H]1C[C@H]2C[C@H](C2(C)C)[C@@]1(C)Nc1nc(Nc2ccc(OCCN(C)C3CCCC3)cc2)ncc1Cl` [Compound 33, (1R,2R,3S,5R)-2-(5-chloro-2-(4-(2-((cyclopentyl)(methyl)amino)ethoxy)phenylamino)pyrimidin-4-ylamino)-N,2,6,6-tetramethylbicyclo[3.1.1]heptane-3-carboxamide], the IC50 is < 1000 nM. Still for that read-out and setting: with `CNC(=O)[C@H]1C[C@H]2C[C@H](C2(C)C)[C@@]1(C)Nc1nc(Nc2ccc(N3CCN(C)CC3)c(F)c2)ncc1C` [Compound 43, (1R,2R,3S,5R)-2-(5-methyl-2-(3-fluoro-4-(4-methylpiperazin-1-yl)phenylamino)pyrimidin-4-ylamino)-N,2,6,6-tetramethylbicyclo[3.1.1]heptane-3-carboxamide] the figure was < 1000 nM; with `CNC(=O)[C@H]1C[C@H]2C[C@H](C2(C)C)[C@@]1(C)Nc1nc(Nc2ccc(N3CCN(c4ccc(F)cc4)CC3)cc2)ncc1Cl` [Compound 11, (1R,2R,3S,5R)-2-(5-chloro-2-(4-(4-(4-fluorophenyl)piperazin-1-yl)phenylamino)pyrimidin-4-ylamino)-N,2,6,6-tetramethylbicyclo[3.1.1]heptane-3-carboxamide], > 20000 nM; with `CN1CCN(c2ccc(Nc3ncc(Cl)c(N[C@@]4(CCOCc5ccccc5)[C@@H](C(N)=O)C[C@H]5C[C@@H]4C5(C)C)n3)cc2F)CC1` [Compound 17, (1R,2R,3S,5R)-2-(2-(benzyloxy)ethyl)-2-(5-chloro-2-(3-fluoro-4-(4-methylpiperazin-1-yl)phenylamino)pyrimidin-4-ylamino)-6,6-dimethylbicyclo[3.1.1]heptane-3-carboxamide], > 20000 nM. Still for that read-out and setting: the same measure for `CNC(=O)[C@H]1C[C@H]2C[C@H](C2(C)C)[C@@]1(C)Nc1nc(Nc2ccc(N3CCC(N4CCC(C)CC4)CC3)c(F)c2)ncc1Cl` [Compound 54, (1R,2R,3S,5R)-2-(5-chloro-2-(3-fluoro-4-(4-(4-methylpiperidin-1-yl)piperidin-1-yl)phenylamino)pyrimidin-4-ylamino)-N,2,6,6-tetramethylbicyclo[3.1.1]heptane-3-carboxamide]: < 1000 nM; for `CC1(C)[C@H]2C[C@H](C(N)=O)[C@](C)(Nc3nc(Nc4ccc(OCCN5CCCC5)cc4)ncc3Cl)[C@@H]1C2` [Compound 29, (1R,2R,3S,5R)-2-(5-chloro-2-(4-(2-(pyrrolidin-1-yl)ethoxy)phenylamino)pyrimidin-4-ylamino)-2,6,6-trimethylbicyclo[3.1.1]heptane-3-carboxamide]: < 1000 nM. As for `CNC(=O)[C@H]1C[C@H]2C[C@H](C2(C)C)[C@@]1(C)Nc1nc(Nc2ccc(N3CCN(CCO)CC3)cc2)ncc1Cl` [Compound 41, (1R,2R,3S,5R)-2-(5-chloro-2-(4-(4-(2-hydroxyethyl)piperazin-1-yl)phenylamino)pyrimidin-4-ylamino)-N,2,6,6-tetramethylbicyclo[3.1.1]heptane-3-carboxamide], the IC50 is < 1000 nM.

`CNC(=O)[C@H]1C[C@H]2C[C@H](C2(C)C)[C@@]1(C)Nc1nc(Nc2ccc(N3CCN(C(C)=O)CC3)c(Cl)c2)ncc1F` [Compound 38, (1R,2R,3S,5R)-2-(5-fluoro-2-(3-chloro-4-(4-acetylpiperazin-1-yl)phenylamino)pyrimidin-4-ylamino)-N,2,6,6-tetramethylbicyclo[3.1.1]heptane-3-carboxamide] registered a half-maximal inhibitory concentration (IC50) of 1000 to 10000 nM. Same read-out and setting: the same measure for `CNC(=O)[C@H]1C[C@H]2C[C@H](C2(C)C)[C@@]1(C)Nc1nc(Nc2ccc(N3CCC(F)(F)CC3)c(F)c2)ncc1C` [Compound 44, (1R,2R,3S,5R)-2-(5-methyl-2-(3-fluoro-4-(4,4-difluoropiperidin-1-yl)phenylamino)pyrimidin-4-ylamino)-N,2,6,6-tetramethylbicyclo[3.1.1]heptane-3-carboxamide]: 1000 to 10000 nM; for `CNC(=O)[C@H]1C[C@H]2C[C@H](C2(C)C)[C@@]1(C)Nc1nc(Nc2ccc(N3CCN(C(C)=O)CC3)cc2)ncc1Cl` [Compound 13, (1R,2R,3S,5R)-2-(2-(4-(4-acetylpiperazin-1-yl)phenylamino)-5-chloropyrimidin-4-ylamino)-N,2,6,6-tetramethylbicyclo[3.1.1]heptane-3-carboxamide]: 1000 to 10000 nM.

Staying with this test, now noted: Table 2, formula (Ib); Hela cells, Axl antibody cross-linking stimulation, phospho-Akt chemiluminescence normalized to relative cell number.
On to `CNC(=O)[C@@H]1C[C@@H]2C[C@@H](C2(C)C)[C@]1(C)Nc1nc(Nc2ccc(OCCN3CCCC3)cc2)ncc1Cl` [Compound 22, (1S,2S,3R,5S)-2-(5-chloro-2-(4-(2-(pyrrolidin-1-yl)ethoxy)phenylamino)pyrimidin-4-ylamino)-N,2,6,6-tetramethylbicyclo[3.1.1]heptane-3-carboxamide], for which the IC50 is > 20000 nM.

The test is the same for the next values; noted with them: Table 3, formula (Ic); Hela cells, Axl antibody cross-linking stimulation, phospho-Akt chemiluminescence normalized to relative cell number.
For `CC(C)NC(=O)[C@H]1C[C@H]2C[C@H](C2(C)C)[C@@]1(C)Nc1nc(Nc2ccc3c(c2)OCCN3CCN(C)C)ncc1Cl` [Compound 64, (1R,2R,3S,5R)-2-(5-chloro-2-((3,4-dihydro-4-(2-(dimethylamino)ethyl)-2H-benzo[b][1,4]oxazin-7-yl)amino)pyrimidin-4-ylamino)-N-(1-methylethyl)-2,6,6-trimethylbicyclo[3.1.1]heptane-3-carboxamide], the half-inhibitory concentration (IC50) was < 1000 nM.

The same test, now with this note: Table 4, formula (Id); Hela cells, Axl antibody cross-linking stimulation, phospho-Akt chemiluminescence normalized to relative cell number.
With `CNC(=O)[C@H]1C[C@H]2C[C@H](C2(C)C)[C@@]1(C)Nc1nc(Nc2ccc3c(c2)CCN3CCN(C)C)ncc1Cl` [Compound 27, (1R,2R,3S,5R)-2-(5-chloro-2-(1-(2-(dimethylamino)ethyl)indolin-5-ylamino)pyrimidin-4-ylamino)-N,2,6,6-tetramethylbicyclo[3.1.1]heptane-3-carboxamide], the IC50 is < 1000 nM.

On to `CNC(=O)[C@H]1C[C@H]2C[C@H](C2(C)C)[C@@]1(C)Nc1nc(Nc2ccc3[nH]ccc3c2)ncc1Cl` [Compound 26, (1R,2R,3S,5R)-2-(2-(1H-indol-5-ylamino)-5-chloropyrimidin-4-ylamino)-N,2,6,6-tetramethylbicyclo[3.1.1]heptane-3-carboxamide], for which the IC50 fell in the range of 1000 to 10000 nM.
